# Source: ChEMBL document CHEMBL1201862, “PubChem BioAssay data set” (2004)
# Structures can show the parent of a compound that is named as a salt. Active and inactive are the calls of the source.
# Columns and labels:
# [1] = target: T1, Corticotropin-releasing factor receptor 2/Corticotropin-releasing factor-binding protein (Homo sapiens, UniProt P24387+Q13324); assay: Dose Response confirmation of uHTS hits for small molecule antagonists of the CRF-binding protein and CRF-R2 receptor complex.; assay type: functional; conditions: read-out: IC50_Mean
# T1 sequence (Q13324 whole entry): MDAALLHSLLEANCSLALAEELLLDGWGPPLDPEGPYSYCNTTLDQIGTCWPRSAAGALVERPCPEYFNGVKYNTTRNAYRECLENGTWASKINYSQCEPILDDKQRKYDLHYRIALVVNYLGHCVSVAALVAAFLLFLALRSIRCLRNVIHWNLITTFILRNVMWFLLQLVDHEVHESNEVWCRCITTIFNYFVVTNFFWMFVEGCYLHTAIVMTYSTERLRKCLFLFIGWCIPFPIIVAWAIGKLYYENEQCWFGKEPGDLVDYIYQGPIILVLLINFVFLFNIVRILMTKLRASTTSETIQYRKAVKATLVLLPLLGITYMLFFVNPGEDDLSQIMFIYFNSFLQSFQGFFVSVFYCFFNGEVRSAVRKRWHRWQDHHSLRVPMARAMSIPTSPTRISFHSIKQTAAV
# T1 sequence (P24387 whole entry): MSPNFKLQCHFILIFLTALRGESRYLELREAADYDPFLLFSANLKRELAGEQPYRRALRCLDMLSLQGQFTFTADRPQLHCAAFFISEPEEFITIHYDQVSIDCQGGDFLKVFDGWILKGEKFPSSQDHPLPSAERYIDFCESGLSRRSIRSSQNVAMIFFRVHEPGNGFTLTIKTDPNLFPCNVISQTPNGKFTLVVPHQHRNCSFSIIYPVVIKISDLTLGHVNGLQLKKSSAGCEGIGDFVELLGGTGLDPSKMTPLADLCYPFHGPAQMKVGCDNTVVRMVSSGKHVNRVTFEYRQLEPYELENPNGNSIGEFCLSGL
# [2] = target: T1, Corticotropin-releasing factor receptor 2/Corticotropin-releasing factor-binding protein; assay: activators of CRF receptor 2 with binding protein – uHTS hits, confirmation (AID 602473); assay type: functional; conditions: read-out: EC50_Mean
# [3] = CRF-BP/CRF-R2 complex antagonists, dose response, cell-based, uHTS hits, 384-well (AID 651639); assay type: functional, Homo sapiens; conditions: read-out: IC50_Mean
# [4] = target: T2, Histone-lysine N-methyltransferase NSD2 (Homo sapiens, UniProt O96028); assay type: biochemical
# T2 sequence (O96028 whole entry): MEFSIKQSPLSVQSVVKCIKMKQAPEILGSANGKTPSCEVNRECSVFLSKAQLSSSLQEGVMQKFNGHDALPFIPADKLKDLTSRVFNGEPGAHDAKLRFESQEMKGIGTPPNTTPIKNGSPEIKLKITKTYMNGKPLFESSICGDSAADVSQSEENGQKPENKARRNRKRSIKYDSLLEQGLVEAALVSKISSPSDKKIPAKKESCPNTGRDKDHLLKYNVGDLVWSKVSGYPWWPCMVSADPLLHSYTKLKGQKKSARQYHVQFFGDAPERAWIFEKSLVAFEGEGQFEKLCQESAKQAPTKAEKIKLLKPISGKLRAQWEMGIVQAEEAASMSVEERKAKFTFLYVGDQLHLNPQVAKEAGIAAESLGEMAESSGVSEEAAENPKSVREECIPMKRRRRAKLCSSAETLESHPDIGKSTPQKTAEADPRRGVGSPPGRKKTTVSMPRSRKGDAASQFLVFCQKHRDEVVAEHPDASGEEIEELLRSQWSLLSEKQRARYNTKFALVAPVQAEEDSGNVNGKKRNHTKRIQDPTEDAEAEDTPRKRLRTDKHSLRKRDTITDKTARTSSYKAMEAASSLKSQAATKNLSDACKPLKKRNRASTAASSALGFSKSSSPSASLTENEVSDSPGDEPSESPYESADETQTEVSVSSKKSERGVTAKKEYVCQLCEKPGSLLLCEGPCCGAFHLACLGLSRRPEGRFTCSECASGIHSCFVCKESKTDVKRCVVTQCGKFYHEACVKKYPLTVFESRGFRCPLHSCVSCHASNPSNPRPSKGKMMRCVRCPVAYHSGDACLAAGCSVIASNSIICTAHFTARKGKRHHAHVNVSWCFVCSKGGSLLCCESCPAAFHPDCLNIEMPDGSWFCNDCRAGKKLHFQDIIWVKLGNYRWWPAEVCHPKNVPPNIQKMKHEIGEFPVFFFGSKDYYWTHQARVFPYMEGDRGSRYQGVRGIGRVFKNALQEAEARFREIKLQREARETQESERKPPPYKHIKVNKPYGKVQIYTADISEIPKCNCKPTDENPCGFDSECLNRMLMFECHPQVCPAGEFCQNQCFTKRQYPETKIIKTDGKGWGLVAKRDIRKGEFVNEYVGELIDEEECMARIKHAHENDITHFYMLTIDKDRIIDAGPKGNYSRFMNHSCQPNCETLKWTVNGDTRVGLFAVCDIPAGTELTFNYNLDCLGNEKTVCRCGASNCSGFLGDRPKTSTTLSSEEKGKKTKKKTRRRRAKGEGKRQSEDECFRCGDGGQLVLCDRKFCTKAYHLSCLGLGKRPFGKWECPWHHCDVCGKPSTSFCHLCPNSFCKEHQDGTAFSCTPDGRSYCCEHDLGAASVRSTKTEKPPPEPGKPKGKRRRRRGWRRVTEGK
# [5] = target: Ras and Rab interactor 1/Tyrosine-protein kinase ABL1 (Homo sapiens, UniProt P00519+Q13671); assay type: functional;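 further: biochemical TR-FRET dose-response test measuring inhibition of binding between Rin1 and Abl proteins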
# Chain of Ras and Rab interactor 1/Tyrosine-protein kinase ABL1 (P00519 whole entry): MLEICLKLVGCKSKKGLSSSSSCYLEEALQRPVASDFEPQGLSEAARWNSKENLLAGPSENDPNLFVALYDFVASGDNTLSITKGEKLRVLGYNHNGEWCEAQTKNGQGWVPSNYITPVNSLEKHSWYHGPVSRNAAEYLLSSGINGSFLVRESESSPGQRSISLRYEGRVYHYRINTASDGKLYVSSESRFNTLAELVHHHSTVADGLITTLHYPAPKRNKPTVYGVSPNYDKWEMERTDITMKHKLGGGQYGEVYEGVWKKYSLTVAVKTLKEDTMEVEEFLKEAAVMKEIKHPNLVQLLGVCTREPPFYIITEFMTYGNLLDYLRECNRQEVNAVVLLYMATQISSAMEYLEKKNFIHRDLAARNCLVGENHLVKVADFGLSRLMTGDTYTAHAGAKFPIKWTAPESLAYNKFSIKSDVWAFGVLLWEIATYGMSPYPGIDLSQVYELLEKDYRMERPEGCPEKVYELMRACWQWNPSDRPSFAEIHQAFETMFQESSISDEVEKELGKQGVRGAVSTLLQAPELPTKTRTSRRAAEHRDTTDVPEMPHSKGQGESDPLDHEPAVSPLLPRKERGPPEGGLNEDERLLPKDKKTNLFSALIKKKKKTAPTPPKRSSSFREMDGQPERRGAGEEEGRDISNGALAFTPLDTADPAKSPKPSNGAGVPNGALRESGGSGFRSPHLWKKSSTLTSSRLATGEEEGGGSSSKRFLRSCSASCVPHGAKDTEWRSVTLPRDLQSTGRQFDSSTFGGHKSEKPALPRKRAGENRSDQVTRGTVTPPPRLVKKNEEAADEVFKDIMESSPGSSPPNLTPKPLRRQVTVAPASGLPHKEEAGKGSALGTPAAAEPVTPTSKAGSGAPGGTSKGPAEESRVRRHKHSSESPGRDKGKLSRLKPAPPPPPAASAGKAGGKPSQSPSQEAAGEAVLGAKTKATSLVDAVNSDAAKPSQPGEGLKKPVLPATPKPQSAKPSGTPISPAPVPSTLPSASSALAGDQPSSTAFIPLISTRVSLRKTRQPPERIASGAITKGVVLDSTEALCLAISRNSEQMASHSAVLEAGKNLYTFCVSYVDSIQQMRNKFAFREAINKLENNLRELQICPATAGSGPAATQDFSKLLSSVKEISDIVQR
# Chain of Ras and Rab interactor 1/Tyrosine-protein kinase ABL1 (Q13671 whole entry): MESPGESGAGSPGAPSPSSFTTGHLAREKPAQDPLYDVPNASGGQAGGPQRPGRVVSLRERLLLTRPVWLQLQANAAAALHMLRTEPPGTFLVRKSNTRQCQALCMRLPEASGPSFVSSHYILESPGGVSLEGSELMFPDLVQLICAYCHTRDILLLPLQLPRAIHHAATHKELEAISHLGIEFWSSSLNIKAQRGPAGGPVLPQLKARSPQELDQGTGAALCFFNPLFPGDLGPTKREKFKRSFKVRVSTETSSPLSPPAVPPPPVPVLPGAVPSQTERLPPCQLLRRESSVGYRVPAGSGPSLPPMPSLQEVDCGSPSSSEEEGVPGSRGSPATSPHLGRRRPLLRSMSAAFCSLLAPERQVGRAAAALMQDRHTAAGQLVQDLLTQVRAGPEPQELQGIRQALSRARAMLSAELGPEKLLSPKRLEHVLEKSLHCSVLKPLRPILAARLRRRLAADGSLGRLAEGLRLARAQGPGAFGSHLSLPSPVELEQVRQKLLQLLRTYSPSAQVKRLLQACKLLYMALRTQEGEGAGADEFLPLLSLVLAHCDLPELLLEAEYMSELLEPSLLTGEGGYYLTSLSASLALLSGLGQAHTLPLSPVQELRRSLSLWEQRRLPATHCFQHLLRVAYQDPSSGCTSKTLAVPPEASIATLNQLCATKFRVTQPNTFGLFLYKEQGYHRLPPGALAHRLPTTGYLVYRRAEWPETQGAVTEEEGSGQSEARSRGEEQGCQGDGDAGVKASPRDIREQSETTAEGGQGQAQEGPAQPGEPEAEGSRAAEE
# [6] = control 3'UTR Renilla luciferase suppression, dose response, counter-screen for Shn3 inhibitor project, cell-based, Clone20-Shn3RL, cherry-picked (AID 624133); assay type: functional
# [7] = HepG2 cell cytotoxicity, dose response, cytotoxicity control for Shn3 inhibitor project, CellTiter-Glo, cherry-picked (AID 624134); assay type: functional, cell-based
# Protein Wnt-3a = Protein Wnt-3a (Mus musculus, UniProt P27467); assay: Wnt3a-driven reporter signaling inhibition, dose response, selectivity assay for Gli-SUFU antagonist project, Wnt-LIGHT cells, luminescence (AID 651570); assay type: functional; conditions: read-out: IC50_Mean;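 further: Wnt-LIGHT reporter cells stimulated with conditioned medium from Wnt3a-producing cells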
# Chain of Protein Wnt-3a (P27467 whole entry): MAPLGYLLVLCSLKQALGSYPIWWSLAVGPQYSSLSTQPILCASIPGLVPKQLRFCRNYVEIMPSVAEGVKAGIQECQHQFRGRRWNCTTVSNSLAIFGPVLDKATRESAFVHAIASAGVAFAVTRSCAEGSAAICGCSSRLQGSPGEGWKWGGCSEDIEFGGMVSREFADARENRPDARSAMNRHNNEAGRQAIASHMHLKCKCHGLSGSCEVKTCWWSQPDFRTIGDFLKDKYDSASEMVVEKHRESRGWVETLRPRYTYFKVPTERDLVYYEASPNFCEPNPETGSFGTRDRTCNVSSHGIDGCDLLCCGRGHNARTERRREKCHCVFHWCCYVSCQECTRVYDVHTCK
# [8] = target: T3, COUP transcription factor 2 (Homo sapiens, UniProt P24468); assay: Luminescence-based cell-based high throughput dose response assay to identify inhibitors of COUP-TFII (NR2F2).; assay type: functional;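 further: HEK293 cells transiently cotransfected with COUP-TFII expression vector and reporter; luciferase reporter luminescence driven by COUP-TFII from the pX2-168 reporter plasmid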
# T3 sequence (P24468 whole entry): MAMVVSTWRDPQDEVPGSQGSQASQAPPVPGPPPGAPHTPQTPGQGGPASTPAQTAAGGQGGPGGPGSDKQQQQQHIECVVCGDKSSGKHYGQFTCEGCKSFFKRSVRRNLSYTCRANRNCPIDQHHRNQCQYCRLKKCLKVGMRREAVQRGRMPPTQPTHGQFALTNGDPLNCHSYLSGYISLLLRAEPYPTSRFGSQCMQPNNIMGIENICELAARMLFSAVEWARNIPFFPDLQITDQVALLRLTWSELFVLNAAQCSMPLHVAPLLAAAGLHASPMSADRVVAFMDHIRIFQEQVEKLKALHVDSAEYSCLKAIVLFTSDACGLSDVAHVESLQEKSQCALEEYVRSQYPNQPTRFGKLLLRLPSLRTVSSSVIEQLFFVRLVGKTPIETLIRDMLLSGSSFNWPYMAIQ
# [9] = Shn3 3'UTR reporter inhibitors, dose response, cell-based, Clone20 osteoblasts, firefly luciferase, cherry-picked (AID 624132); assay type: functional;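 further: firefly luciferase luminescence from reporter carrying the Shn3 3'UTR in osteoblasts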
# Streptococcus = assay: Group A Streptococcus viability loss, dose response, counter-screen for streptokinase expression inhibitor project, luminescence, BacTiterGlo (AID 1915); assay type: functional, organism-based;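 further: potency for reduction of bacterial viability or growth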
# [10] = target: T4, Zinc finger protein mex-5 (Caenorhabditis elegans, UniProt Q9XUB2); assay: MEX-5/TCR-2 RNA interaction inhibitors, dose response, biochemical, C. elegans, fluorescence polarization (AID 1960)
# T4 sequence (Q9XUB2 whole entry): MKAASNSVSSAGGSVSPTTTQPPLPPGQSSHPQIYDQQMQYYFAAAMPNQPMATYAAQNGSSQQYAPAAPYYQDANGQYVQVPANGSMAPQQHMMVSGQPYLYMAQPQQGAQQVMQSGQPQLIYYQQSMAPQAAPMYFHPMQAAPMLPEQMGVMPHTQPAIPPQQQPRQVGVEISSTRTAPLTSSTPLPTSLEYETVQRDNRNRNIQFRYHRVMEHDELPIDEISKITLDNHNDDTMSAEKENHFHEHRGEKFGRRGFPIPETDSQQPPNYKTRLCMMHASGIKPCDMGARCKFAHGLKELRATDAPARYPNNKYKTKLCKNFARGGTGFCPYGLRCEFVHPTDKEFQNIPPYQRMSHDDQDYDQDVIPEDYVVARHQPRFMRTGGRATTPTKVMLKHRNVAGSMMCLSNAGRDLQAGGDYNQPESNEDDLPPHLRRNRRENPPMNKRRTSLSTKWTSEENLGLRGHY
# [11] = target: T5, RNA-binding protein pos-1 (Caenorhabditis elegans, UniProt G5EF15); assay: inhibitors of POS-1/mex-3 RNA binding, dose response, biochemical, fluorescence polarization (AID 1964);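 further: purified POS-1 fused to maltose binding protein made in E. coli; potency of compounds blocking POS-1 binding to fluorescent RNA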
# T5 sequence (G5EF15 whole entry): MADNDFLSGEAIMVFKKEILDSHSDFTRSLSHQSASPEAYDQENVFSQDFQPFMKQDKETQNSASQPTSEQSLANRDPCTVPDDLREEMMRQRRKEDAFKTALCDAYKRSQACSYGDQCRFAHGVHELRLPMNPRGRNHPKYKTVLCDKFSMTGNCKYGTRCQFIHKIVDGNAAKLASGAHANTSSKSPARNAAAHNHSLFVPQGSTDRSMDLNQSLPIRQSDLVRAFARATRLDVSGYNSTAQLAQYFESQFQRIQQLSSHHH
# Escherichia coli [12] = assay: microbe, parasite or virus in culture
# [13] = test system: Streptococcus sp. 'group A'; assay: growth inhibition of control SK(-) GAS strain, dose response, counter-screen for streptokinase expression inhibitor project, luminescence, kanamycin, BacTiterGlo, confirmation (AID 1900); assay type: functional, organism-based
# [14] = ARNT/TACC3 interaction disruptors, potency, confirmation, biochemical, AlphaScreen, cherry-picked samples (AID 651703); assay type: functional, Homo sapiens;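 further: His-tagged ARNT PAS-B domain paired with GST-TACC3 E629A dimer coactivator fragment; potency of inhibitors that break up the complex and lower AlphaScreen signal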
# Escherichia coli [15] = assay: microbe, parasite or virus in culture; remark: listed apart in the source
# [16] = target: T6, Tyrosyl-DNA phosphodiesterase 2 (Homo sapiens, UniProt O95551); assay: human TDP2 enzyme inhibitors, dose response, biochemical, epi absorbance, IC50 (AID 743297)
# T6 sequence (O95551 whole entry): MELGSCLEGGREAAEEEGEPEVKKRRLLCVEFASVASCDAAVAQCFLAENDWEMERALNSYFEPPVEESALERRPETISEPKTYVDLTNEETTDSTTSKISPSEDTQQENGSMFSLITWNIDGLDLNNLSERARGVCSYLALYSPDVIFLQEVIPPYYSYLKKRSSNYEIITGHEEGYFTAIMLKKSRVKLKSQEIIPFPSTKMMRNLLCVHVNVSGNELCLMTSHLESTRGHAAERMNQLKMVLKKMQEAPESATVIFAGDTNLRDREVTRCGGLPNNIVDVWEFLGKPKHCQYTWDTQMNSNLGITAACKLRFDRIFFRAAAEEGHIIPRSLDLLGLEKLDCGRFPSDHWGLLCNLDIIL
# [17] = target: Mitochondrial peptide methionine sulfoxide reductase (Bos taurus, UniProt P54149); assay: Absorbance-based biochemical high throughput dose response assay for activators of Methionine sulfoxide reductase A (MsrA).; assay type: functional
# Chain of Mitochondrial peptide methionine sulfoxide reductase (P54149 whole entry): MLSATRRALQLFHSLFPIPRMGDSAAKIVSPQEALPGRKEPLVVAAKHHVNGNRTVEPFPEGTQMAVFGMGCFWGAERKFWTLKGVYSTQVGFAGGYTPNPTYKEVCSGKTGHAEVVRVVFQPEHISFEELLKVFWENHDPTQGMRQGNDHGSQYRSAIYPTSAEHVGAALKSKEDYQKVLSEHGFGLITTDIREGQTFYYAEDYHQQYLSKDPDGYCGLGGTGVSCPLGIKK
# [18] = target: T7, RNA-editing ligase 1, mitochondrial (Trypanosoma brucei brucei, UniProt P86926); assay: TbREL1 ligase inhibitors, dose response, biochemical, fluorescence, Trypanosoma brucei (AID 1117295); assay type: functional
# T7 sequence (P86926 whole entry): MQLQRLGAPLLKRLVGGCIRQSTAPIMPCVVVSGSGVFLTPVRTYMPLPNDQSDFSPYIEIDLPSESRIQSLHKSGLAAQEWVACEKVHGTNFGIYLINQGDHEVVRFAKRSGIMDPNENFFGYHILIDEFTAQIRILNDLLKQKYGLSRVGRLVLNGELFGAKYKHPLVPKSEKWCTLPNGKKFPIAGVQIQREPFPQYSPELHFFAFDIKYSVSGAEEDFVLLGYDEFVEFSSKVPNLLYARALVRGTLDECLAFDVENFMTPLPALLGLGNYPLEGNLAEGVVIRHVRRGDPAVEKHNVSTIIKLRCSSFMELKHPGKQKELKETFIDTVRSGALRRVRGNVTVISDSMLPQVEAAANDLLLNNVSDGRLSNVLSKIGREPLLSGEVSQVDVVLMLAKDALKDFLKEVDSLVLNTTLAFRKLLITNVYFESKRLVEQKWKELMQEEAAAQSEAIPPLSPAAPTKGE
# Mu-type opioid receptor = Mu-type opioid receptor (Homo sapiens, UniProt P35372); assay type: functional, cell-based;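 further: U2OS cells with beta-arrestin recruitment to OPRM1 by beta-gal complementation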
# Chain of Mu-type opioid receptor (P35372 whole entry): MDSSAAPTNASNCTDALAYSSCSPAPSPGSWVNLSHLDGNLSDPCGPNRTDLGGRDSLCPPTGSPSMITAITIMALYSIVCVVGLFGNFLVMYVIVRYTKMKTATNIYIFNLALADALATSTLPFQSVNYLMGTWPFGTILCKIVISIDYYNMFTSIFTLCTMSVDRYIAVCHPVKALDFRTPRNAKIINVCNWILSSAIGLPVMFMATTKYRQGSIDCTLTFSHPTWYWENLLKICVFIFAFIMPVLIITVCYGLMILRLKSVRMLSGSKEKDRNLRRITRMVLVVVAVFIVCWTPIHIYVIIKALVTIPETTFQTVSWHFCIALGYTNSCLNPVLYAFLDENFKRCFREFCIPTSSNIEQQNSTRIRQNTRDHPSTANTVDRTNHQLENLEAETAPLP
# Large T antigen = Large T antigen (Simian virus 40, UniProt P03070); assay type: functional, Betapolyomavirus macacae;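 further: Confirmatory-stage PubChem screen for compounds that inhibit SV40 T antigen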
# Chain of Large T antigen (P03070 whole entry): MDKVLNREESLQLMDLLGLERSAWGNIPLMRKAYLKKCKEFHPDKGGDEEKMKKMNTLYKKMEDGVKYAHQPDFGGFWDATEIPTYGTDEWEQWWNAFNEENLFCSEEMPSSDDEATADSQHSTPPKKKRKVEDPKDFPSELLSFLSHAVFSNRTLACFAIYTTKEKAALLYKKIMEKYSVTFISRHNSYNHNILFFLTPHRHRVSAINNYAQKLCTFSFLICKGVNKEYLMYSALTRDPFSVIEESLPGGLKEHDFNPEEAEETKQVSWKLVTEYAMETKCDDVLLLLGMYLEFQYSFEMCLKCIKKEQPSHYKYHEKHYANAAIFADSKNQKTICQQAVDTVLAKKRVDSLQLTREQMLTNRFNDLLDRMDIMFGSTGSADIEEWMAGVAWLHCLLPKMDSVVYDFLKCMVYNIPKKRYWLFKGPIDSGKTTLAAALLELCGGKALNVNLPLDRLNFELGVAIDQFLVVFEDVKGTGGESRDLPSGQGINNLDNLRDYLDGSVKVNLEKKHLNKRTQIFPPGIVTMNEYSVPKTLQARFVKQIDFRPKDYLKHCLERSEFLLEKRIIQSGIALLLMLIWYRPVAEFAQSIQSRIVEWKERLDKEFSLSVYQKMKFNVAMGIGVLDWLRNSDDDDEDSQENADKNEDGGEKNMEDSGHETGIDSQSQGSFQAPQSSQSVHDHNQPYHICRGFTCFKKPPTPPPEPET
smiles,measurement,setting,value
COc1ccc(/C=C2\CCC/C(=C\c3ccc(OC)c(OC)c3OC)C2=O)c(OC)c1OC,IC50,[1],4.04 µM (active)
same,EC50,[2],> 53 µM (inactive)
same,IC50,[3],7.33 µM (active)
CCOC(=O)CCCCC(=O)c1[nH]c(O)nc1CSc1nc2ccccc2[nH]1,AC50,[4],7.6 µM (active)
same,IC50,[5],0.0967 µM (active)
CC1C(OC(=O)CCC(=O)NC(C)(C)CO)O[C@H]2OC3(C)CC[C@H]4[C@H](C)CCC1C24OO3 (stereo partly specified),AC50,[6],0.841 µM (active)
same,AC50,[7],> 70 µM (inactive)
same,IC50,Protein Wnt-3a,0.794 µM (active)
same,IC50,[8],> 85.4 µM (inactive)
same,AC50,[9],0.495 µM (active)
CN(C)[C@@H]1C(=O)C(C(N)=O)=C(O)[C@@]2(O)C(O)=C3C(=O)c4c(O)cccc4[C@@](C)(O)C3[C@H](O)C12 (stereo partly specified),EC50,Streptococcus,0.277 µM (active)
same,EC50,[10],20.5 µM (active)
same,EC50,[11],54.1 µM (active)
same,AC50,Escherichia coli [12],9.92 µM (active)
same,EC50,[13],0.088 µM (active)
same,AC50,[14],75.2 µM (active)
same,AC50,Escherichia coli [15],< 0.3 µM (active)
CCc1noc(C)c1C(=O)N1CCS/C1=N\c1cccc(Cl)c1C,IC50,[1],< 0.368 µM (active)
same,EC50,[2],> 53 µM (inactive)
same,IC50,[3],> 20 µM (inactive)
COC1=CC(=O)c2nc(Cl)ccc2C1=O,IC50,[16],4.46 µM (active)
same,EC50,[17],44.4 µM (inactive)
same,AC50,[4],4.32 µM (active)
same,IC50,[18],28.3 µM (inactive)
NCCc1c[nH]c2ccc(O)cc12 [SEROTONIN HYDROCHLORIDE],EC50,Mu-type opioid receptor,92.4 µM (inactive)
same,IC50,Large T antigen,41.3 µM (active)
